Experimental data: US20240150306A1, “COMPOUNDS WITH CLEAVABLE DISULFIDE MOIETIES” (REINVIGORON THERATECH, INC., priority 2022, published 2024)

Experiments:
[1] = test system: 4T1 murine breast cancer cells; assay: In vitro luciferase expression (ONE-Glo+Tox); type: cell-based; conditions: 100 ng mRNA or 200 ng pDNA per well, 24 h, FIGS. 11 and 12
Experimental: (§1) 4T1 murine breast cancer cells were seeded into white 96-well plate with the density of 1×10^4 cells per well. After 24 h, cells were replaced by 180 μL fresh RPMI 1640 medium (10% FBS), and 20 μL mRNA-Luc or Luc-pDNA encapsulated CLLM Nanoparticle formulations were added with fixed 100 ng mRNA or 200 ng pDNA per well. Free mRNA-Luc or Luc-pDNA were used as the control. Cells were further incubated for 24 h and ONE-Glo+Tox kits were used for mRNA expression and cytotoxicity detection based on the standard protocol.

[2] = test system: 4T1 murine breast cancer cells; assay: Cell viability / cytotoxicity detection (ONE-Glo+Tox); type: cell-based
Experimental: as §1

CCCCCCCCCCCCCCOC(=O)CCN(CCSSCCN(C)C)CCC(=O)OCCCCCCCCCCCCCC [CLLM-2]
luciferase expression / delivery of mRNA and pDNA into cells [1]: can deliver mRNA and pDNA into cells
tolerability of drug delivery (mRNA nanoparticle formulations) ([2]; 100 ng mRNA in 200 uL medium per well, FIG. 11): tolerated
tolerability of drug delivery (pDNA nanoparticle formulations) ([2]; 200 ng pDNA in 200 uL medium per well, FIG. 12): tolerated
